Tests used:
[1] = tested on: MC3T3E1 cells; assay: Cell adhesion on PLAGA matrices (crystal violet stain); type: cell-based; settings: 100 μM vs untreated, adhesion for at least 1 h
Description: FIG. 2. Effects of 6-Bnz-cAMP on cell adhesion in MC3T3E1 on PLAGA matrices. Cells were treated with 100 μM 6-Bnz-cAMP or untreated. Cells were allowed to adhere for at least 1 h, and nonadherent cells were removed by washing with phosphate buffer saline (PBS). The adhered cells were stained with crystal violet solution for 15 minutes at room temperature and the absorbed stain dye was then solubilized in 1% SDS solution. The amount of dye taken up by the cells was measured in a spectrophotometer. The plots shown are representative of two independent experiments, each done in triplicate (n=3). Error bars represent SD.
For these experiments, the polymer component of the scaffold, poly(lactic-co-glycolide) (PLAGA) was selected because of its documented degradability and biocompatibility.
More specifically, thin film discs of poly(lactic-co-glycolide) (PLAGA) were fabricated using a traditional solvent-casting method. In this process, the polymer was first dissolved in methylene chloride, then poured into a Teflon-coated dish. The dishes were then placed in a −20° C. freezer to allow solvent evaporation. […]
Adhesion: In the cell adhesion study presented in FIG. 2 cells were allowed to adhere for at least 1 h, and nonadherent cells were removed by washing with phosphate buffer saline (PBS). […] The amount of dye taken up by the cells was measured in a spectrophotometer.

[2] = tested on: MC3T3E1 cells; assay: Cell proliferation, PicoGreen dsDNA assay; type: cell-based; settings: 100 μM in regular growth medium
Description: FIG. 3. 6-Bnz-cAMP promotes cell growth in the earliest day of cell culture (Day 1) and maintains the cell proliferation rate at Day 7 and Day 14. Error bars represent SD.
MC3T3E1 subtype 4 cell line was purchased from the […] (ATCC). The cells were grown to confluence, then seeded onto PLAGA discs at a density of 50,000 cells/scaffold. The cells were cultured on the discs in vitro in a 37° C. and 5% CO2 environment, using MEM alpha cell culture medium +10% Fetal Bovine Serum as a nutrient source. At specific time points, cultured cells were collected for various assays i.e., cell adhesion assays, cell proliferation assays, and cell differentiation studies.
Proliferation: Cell proliferation was tested using a PicoGreen dsDNA assay kit (Molecular Probes, Eugene, Oreg.) The procedure of the PicoGreen dsDNA assay was performed according to the manufacturer's instructions. Briefly, 5×10^4 cells ml^−1 were seeded in a well of a tissue culture plate. 100 μM of 6-Bnz-cAMP was added to the regular growth medium during cell seeding. The regular growth medium and 6-Bnz-cAMP (100 μM) were replaced every 3 to 4 days.

[3] = tested on: MC3T3-E1 cells; assay: Trypan blue viability assay; type: cell-based; settings: 100 micromolar, days 7, 14 and 21
Description: FIG. 7. MC3T3-E1 cell viability of cells treated with 6-Bnz-cAMP compared to untreated cells. Cell viability was measured by trypan blue viability stain.
Viability: Cell viability is determined using a trypan blue viability assay. For trypan blue viability assay method, at day 7, 14, and 21, cells were collected by trypsinization and stained with trypan blue dye (MP Biochemicals LLC, Solon, Ohio). The cells were then numbered in a hemacytometer (Hausser Scientific, Horsham, Pa.) under a light microscopy (Olympus Corporation, Tokyo, Japan). Cell stained blue was scored a dead cell, while unstained cell was scored a live cell. The results are presented in % of viability.
MC3T3-E1 cells were grown in mineralization media. 6-Bnz-cAMP was added to the culture medium to a final concentration of 100 μM for experiments; mineralization media only was used for positive controls. Osteoblast-associated markers were quantitated at days 7 and 14. Markers include increased alkaline phosphatas (ALP) activity (FIG. 5) and calcium precipitation in MC3T3-E1 cells (FIG. 6). 6-Bnz-cAMP toxicity was assessed at days 7, 14, and 21 in cells treated with 100 micromolar 6-Bnz-cAMP compared to untreated cells. Trypan blue staining was used to visualize cells (FIG. 7).

[4] = tested on: Runx2; assay: Runx2 expression by SDS-PAGE and Western blotting; type: cell-based; settings: day 21
Description: FIG. 4. […] It is thought that Runx2 serves as a gatekeeper to promote osteogenesis, thus it is one of the most important marker for osteogenesis. In the control panel, consistent with the reported data in literature, Runx2 was detected in the presence of osteogenic medium but remain undetectable level without the osteogenic medium. […] The blot of tubulin serves as loading control for each sample loading.
Differentiation: Osteogenic protein markers were analyzed SDS-PAGE and Western Blotting. Protein samples were resolved by SDS-PAGE on precast 12.5% […] gels (Bio-Rad, Hercules, Calif.) and transferred electrophoretically onto polyvinylidene difluoride membranes according to the manufacturer's instructions (Bio-Rad, Hercules, Calif.). Membranes were blocked with skim milk and then probed with respective antibodies. […]
MC3T3E1 cells expressed classic markers for the osteoblastic phenotype in the presence of 6-Bnz-cAMP in the absence of osteogenic medium in samples collected at day 21. The level of Runx2, a bone-specific transcription factor which increases bone formation through the stimulation of bone-marker gene transcription in osteoblasts, was detected by immunoblotting (FIG. 4). In the control panel, Runx2 was detected in the presence of osteogenic medium but remain undetectable level without the osteogenic medium. […]

[5] = tested on: Protein Kinase A (PKA); settings: compared to non-specific cAMP analogue db-cAMP; cited from earlier work
[6] = tested on: Epac-Rap1 pathway; settings: unlike cAMP; cited from earlier work
[7] = water and a variety of pharmaceutically useful buffers and solvents; cited from earlier work
[8] = tested on: phophodiesterase; settings: cited from earlier work

O=C(Nc1ncnc2c1ncn2C1O[C@@H]2COP(=O)([O-])O[C@H]2[C@H]1O)c1ccccc1.[Na+] (stereo partly shown) [6-Bnz-cAMP, N^6-Benzoyladenosine-3′,5′-cyclic monophosphate]
initial cell adhesion [1]: enhances the initial cell adhesion
proliferation rate ([2]; Days 7, 14 and 21): maintained
cell growth ([2]; first day of culturing (Day 1)): promote cell growth
cell viability vs untreated cells [3]: No significant differences
expression of Runx2 ([4]; 100 μM, absence of osteogenic medium): induces the expression of Runx2
expression of Runx2 ([4]; osteogenic medium together with 6-Bnz-cAMP, vs 6-Bnz-cAMP alone): further enhanced the expression of Runx2
activation of the Protein Kinase A (PKA) pathway [5]: selectively activates
activation of the Epac-Rap1 pathway [6]: does not activate
solubility [7]: soluble in water
hydrolysis by phophodiesterase [8]: resistant to hydrolysis

Source: US20110217337A1, “BIOACTIVE AGENT FOR BONE TISSUE ENGINEERING” (UNIVERSITY OF CONNECTICUT, priority 2010, published 2011)
